We go through six compounds from PMC4211326, “H-CRRETAWAC-OH, a Lead Structure for the Development of Radiotracer Targeting Integrin α 5 β 1?” (BioMed Research International, 2014).

Where “and” joins values, the source holds several entries; their conditions need not be identical. Identical values can stand only once. Like-named read-outs stand apart in the source and are kept apart here. Where a SMILES comes first, the peptide text is derived from it. Bridges are numbered along the chain shown (N, C = ends). The star is where a group is joined. Propanoyl(2-F) = CC(F)C(=O)*

The format of data set [1] is in vitro ADME, human. The method, then:
The protein binding studies were carried out by incubating [^18F]FProp-C^*RRETAWAC^*-OH (1 MBq/mL) in fresh human serum at 37°C for different time points (30, 60, and 120 min). After incubation, the solution was passed through a spin column (MicroSpin G-50 columns; GE Healthcare, Buckinghamshire, United Kingdom). Protein binding was determined by measuring the activity fixed on the column and the activity in the eluate in the gamma counter. As control [^18F]FProp-C^*RRETAWAC^*-OH was incubated at the same concentration for 60 min in PBS instead of serum.

The format of data set [2] is in vitro ADME, human. The method, then: For stability studies, [^18F]FProp-C^*RRETAWAC^*-OH (approx. 2 MBq/mL) was incubated in human serum for 30, 60, and 120 min at 37°C. At each time point, aliquots of 100 μL were taken and proteins were precipitated using 150 μL acetonitrile. The suspension was treated for 5 min with ultrasound and subsequently centrifuged. The supernatant was diluted with water and analysed by HPLC.
The source holds these as a separate data set.

Data set [3] deals with DU145 human prostate carcinoma cells (αvβ3-negative and α5β1-positive). Kind of data set: Cell uptake study with/without blocking by H-C*RRETAWAC*-OH. It counts as cell-based. Particulars: 37°C, with or without excess H-C*RRETAWAC*-OH. The method, then: (§1) M21 (α v β 3-positive andα 5 β 1-negative), […] (α v β 3-negative andα 5 β 1-positive), and M21L (both receptors negative) cells were maintained in Gibco RPMI 1640 (Life Technologies, Carlsbad, CA) containing 1% glutamine, 10% (v/v) fetal calf serum (FCS), and 1% penicillin/streptomycin/glutamine and grown in tissue culture flasks (Cellstar; Greiner Bio-One, Kremsmuenster, Austria) at 37°C in a humidified atmosphere of 5% CO2 (v/v). For cell uptake studies, cells were trypsinised, washed twice with binding buffer (10 mM HEPES (pH 7.4), 150 mM NaCl, 2 mM MnCl2, 0.1% BSA), and aliquots of 0.9 mL containing 2 × 10^6 cells were transferred to Eppendorf tubes. After addition of 50 μL radiotracer (>100,000 cpm), cells were incubated at 37°C for 120 min in triplicate with either 50 μL PBS with 0.5% BSA (unblocked) or 50 μL of 50 μM H-C^*RRETAWAC^*-OH in PBS/0.5% BSA (blocked), respectively.
(§2) Incubation was stopped by centrifugation (2 min, 1000 rpm); medium was removed and cells were washed twice with 1 mL ice-cold binding buffer. […] Cells were lysed by treatment in 1 N NaOH and […] radioactivity was collected (internalised radioligand fraction). Protein content in the NaOH fraction was determined using spectrophotometric determination with Bradford reagent (Sigma Aldrich, Vienna, Austria). Internalised radioactivity was expressed as percentage of total activity per mg protein.

In data set [4] the test system is M21-L human melanoma cells (both receptors negative). Described as above. It counts as cell-based. The note with it: 37°C, with or without excess H-C*RRETAWAC*-OH. The method, then:
as §1, §2

Data set [5] concerns the target T1, integrin α5β1 (Homo sapiens, UniProt P05556+P08648).
T1 construct: purchased Chemicon, Millipore
In words: Isolated receptor binding assay, immobilised integrin, [125I]echistatin displacement. The note with it: for Ki: immobilized integrin; for Suppression of the binding of [125I]echistatin to immobilised integrin α5β1: result in words. The method, then: (§3) The receptor binding assay was performed following the procedure described previously. In brief, commercially available purifiedα v β 3,α 5 β 1, orα IIb β 3 (Triton X-100 formulation, Chemicon, Millipore) was diluted in coating buffer (25 mM Tris-HCl, 150 mM NaCl, 1 mM CaCl2, 0.5 mM MgCl2, 1 mM MnCl2, pH 7.4), and an aliquot of 100 μL/well, corresponding to 25 ng/wellα v β 3, 100 ng/wellα 5 β 1, or 50 ng/wellα IIb β 3, was added to a 96-well microtiter plate (Maxisorb, Nunc, Wiesbaden, Germany) and incubated at 4°C overnight. The cells were incubated for two hours with blocking buffer (200 μL, coating buffer containing 1% (w/v) bovine serum albumin (BSA)) at room temperature. After washing twice with binding buffer (coating buffer with 0.1% (w/v) BSA) the cells were incubated in the presence of the competing ligand (90 μL, 0.5 pM to 500 nM echistatin; 0.05 nM to 50 μM peptide in binding buffer) with [^125I]echistatin (0.37 kBq/well, 10 μL, 0.05 nM; PerkinElmer, Germany) for 3 h. Afterwards, the cells were washed three times with binding buffer, and bound [^125I]echistatin was solubilised with warm NaOH (2 M). The radioactivity in the resulting samples was measured by a γ-counter. Each data point represents the mean from three cells. All measurements were repeated at least once. K i values were calculated using the software program GraphPad PRISM (GraphPad Software Inc., CA, USA).
(§4) The binding affinities were determined using isolated receptor binding assays where the different integrins (α 5 β 1,α v β 3, andα IIb β 3) were immobilised and [^125I]echistatin was replaced by increasing amounts of the different peptides tested. […] Introduction of the (RS)-2-fluoropropionic acid at the N-terminus of the peptide reduced the binding affinity by a factor of approx. 10.

In data set [6] the target is T2, integrin αIIbβ3 (Homo sapiens, UniProt P05106+P08514).
T2 construct: purchased Chemicon, Millipore
The description is as above. The method, then:
as §3, §4

For data set [7], the target named is T3, integrin αvβ3 (Homo sapiens, UniProt P05106+P06756).
T3 construct: purchased Chemicon, Millipore
Described as above. The method, then: as §3, §4

In data set [8] the test system is α5β1. Also on record: method as in PMID 7507494. Particulars: read-out: IC50, inhibition of binding of fibronectin to α5β1; cited from earlier work.
[9] abbreviates: Binding affinity (Ki) α5β1, average and standard deviation of the mean, or bound with n = 2, 125I-echistatin.
The mark [10] stands for this setting: Binding affinity (Ki) α5β1, single determinations, 125I-echistatin as radioligand.
The mark [11] stands for this setting: average and standard deviation of the mean, or bound with n = 2, 125I-echistatin, read-out: Binding affinity (Ki) α5β1.
[12] abbreviates: single determinations, 125I-echistatin as radioligand, read-out: Binding affinity (Ki) α5β1.

T3 sequence (P06756 31-889 limits assumed): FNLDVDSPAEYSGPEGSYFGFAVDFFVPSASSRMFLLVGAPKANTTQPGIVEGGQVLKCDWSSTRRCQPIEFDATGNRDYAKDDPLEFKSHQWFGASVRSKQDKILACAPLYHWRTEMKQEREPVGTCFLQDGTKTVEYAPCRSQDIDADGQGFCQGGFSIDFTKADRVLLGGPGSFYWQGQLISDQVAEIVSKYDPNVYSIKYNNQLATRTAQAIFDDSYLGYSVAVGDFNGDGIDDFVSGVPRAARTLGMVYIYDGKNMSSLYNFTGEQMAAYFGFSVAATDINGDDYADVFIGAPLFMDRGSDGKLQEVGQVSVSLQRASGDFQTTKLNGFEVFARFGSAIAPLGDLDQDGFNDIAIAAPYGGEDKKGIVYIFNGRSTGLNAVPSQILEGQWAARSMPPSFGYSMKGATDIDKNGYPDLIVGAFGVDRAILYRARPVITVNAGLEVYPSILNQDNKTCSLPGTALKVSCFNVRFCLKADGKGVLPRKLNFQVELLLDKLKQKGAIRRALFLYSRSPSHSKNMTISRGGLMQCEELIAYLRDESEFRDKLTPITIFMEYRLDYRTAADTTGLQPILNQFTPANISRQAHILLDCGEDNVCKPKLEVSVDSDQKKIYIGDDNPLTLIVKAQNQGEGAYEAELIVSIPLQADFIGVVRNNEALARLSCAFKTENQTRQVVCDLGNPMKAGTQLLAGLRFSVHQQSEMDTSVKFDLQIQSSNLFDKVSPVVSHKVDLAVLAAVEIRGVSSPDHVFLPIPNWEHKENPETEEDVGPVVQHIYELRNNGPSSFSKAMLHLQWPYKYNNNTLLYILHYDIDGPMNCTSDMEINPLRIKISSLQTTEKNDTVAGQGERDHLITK
T3 sequence (P06756 891-1048 partner limits assumed): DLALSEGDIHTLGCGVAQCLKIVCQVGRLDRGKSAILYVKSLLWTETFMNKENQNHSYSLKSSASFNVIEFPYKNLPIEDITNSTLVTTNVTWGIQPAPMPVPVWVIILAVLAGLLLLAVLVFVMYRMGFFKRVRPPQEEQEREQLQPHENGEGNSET
T3 sequence (P05106 27-788): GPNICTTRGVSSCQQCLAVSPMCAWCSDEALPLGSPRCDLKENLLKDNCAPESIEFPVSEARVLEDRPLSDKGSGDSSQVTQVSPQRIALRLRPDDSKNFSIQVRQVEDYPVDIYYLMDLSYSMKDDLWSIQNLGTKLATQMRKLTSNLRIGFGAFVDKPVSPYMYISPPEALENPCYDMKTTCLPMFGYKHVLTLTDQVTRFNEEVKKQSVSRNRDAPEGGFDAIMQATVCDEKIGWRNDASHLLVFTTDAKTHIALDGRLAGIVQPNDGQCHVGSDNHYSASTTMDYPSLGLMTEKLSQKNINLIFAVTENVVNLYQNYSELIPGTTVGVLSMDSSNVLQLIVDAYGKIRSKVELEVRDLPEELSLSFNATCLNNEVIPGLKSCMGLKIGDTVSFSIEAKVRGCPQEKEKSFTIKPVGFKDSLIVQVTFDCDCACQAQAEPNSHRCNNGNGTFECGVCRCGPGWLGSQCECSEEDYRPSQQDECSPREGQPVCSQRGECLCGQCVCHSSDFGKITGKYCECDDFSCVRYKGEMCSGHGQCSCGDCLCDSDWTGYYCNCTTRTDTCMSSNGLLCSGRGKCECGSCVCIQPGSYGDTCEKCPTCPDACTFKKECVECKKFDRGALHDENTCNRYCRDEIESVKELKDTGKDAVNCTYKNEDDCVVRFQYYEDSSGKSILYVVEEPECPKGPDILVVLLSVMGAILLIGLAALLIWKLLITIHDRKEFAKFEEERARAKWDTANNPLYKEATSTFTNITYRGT
T1 sequence (P08648 42-894 limits assumed): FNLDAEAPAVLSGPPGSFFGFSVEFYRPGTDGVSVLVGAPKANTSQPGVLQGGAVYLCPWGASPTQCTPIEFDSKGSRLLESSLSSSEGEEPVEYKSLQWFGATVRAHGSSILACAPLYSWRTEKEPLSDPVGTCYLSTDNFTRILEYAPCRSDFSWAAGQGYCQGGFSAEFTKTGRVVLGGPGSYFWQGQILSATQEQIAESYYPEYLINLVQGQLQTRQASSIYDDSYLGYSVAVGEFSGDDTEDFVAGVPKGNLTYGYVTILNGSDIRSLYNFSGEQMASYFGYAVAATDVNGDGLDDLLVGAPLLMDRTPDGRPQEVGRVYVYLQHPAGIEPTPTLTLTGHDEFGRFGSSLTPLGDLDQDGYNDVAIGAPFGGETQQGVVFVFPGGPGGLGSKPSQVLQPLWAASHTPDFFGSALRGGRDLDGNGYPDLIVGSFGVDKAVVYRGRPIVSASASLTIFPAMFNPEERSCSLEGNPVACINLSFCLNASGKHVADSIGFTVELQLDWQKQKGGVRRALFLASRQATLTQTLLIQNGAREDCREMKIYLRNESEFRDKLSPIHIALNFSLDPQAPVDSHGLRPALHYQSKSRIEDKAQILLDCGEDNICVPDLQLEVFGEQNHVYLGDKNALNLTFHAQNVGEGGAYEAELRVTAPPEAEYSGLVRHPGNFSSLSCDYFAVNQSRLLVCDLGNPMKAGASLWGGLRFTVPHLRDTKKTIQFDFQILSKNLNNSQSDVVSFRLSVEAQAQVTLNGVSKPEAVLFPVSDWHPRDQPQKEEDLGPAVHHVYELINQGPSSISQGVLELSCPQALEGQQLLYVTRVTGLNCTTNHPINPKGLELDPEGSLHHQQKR
T1 sequence (P08648 895-1049 partner limits assumed): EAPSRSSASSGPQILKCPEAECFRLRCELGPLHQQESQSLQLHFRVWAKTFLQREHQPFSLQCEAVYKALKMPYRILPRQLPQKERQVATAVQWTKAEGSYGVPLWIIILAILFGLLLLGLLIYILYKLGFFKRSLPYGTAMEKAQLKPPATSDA
T1 sequence (P05556 21-798): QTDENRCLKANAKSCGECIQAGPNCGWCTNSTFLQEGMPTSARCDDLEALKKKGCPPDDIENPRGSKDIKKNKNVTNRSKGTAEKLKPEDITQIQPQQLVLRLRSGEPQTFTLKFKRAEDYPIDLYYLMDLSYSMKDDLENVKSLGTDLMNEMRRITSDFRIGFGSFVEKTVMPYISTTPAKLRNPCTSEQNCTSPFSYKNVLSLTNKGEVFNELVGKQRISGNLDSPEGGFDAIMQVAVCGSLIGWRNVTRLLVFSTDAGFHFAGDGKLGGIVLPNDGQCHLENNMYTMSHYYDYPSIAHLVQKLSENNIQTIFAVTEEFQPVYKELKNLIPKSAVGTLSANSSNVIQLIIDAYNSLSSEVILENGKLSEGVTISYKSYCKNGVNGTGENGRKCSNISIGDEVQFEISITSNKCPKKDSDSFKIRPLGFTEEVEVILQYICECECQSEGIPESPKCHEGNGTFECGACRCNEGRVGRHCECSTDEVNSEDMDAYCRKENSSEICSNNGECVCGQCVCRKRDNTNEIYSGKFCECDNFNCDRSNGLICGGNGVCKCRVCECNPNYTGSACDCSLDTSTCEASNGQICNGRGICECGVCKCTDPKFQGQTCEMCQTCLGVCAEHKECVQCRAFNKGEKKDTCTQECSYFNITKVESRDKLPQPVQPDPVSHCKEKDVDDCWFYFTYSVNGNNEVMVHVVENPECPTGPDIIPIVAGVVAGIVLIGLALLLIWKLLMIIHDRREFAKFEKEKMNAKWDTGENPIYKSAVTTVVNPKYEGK
T2 sequence (P08514 32-887 limits assumed): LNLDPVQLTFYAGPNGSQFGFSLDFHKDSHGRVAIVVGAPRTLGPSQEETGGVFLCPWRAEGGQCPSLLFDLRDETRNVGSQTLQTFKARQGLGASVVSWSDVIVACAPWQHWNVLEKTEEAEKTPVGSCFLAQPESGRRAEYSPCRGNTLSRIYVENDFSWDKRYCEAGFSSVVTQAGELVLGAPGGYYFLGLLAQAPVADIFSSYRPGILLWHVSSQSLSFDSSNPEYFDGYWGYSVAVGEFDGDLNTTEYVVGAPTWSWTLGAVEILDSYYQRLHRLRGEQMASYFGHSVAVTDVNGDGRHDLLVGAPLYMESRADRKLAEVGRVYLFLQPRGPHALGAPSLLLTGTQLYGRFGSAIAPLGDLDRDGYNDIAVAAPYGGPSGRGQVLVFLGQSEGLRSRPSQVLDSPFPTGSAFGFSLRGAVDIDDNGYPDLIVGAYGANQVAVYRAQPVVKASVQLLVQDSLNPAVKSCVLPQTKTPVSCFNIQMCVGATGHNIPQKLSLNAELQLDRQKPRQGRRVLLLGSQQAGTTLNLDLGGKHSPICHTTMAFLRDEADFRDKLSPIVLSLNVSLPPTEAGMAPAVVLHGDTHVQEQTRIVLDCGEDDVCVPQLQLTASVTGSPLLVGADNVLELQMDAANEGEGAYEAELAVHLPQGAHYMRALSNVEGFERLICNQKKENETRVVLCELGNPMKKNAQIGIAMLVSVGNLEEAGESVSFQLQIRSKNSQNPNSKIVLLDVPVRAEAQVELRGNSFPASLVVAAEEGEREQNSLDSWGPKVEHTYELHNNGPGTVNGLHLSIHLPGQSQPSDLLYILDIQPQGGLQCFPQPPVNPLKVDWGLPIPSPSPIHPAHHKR
T2 sequence (P08514 891-1039 partner limits assumed): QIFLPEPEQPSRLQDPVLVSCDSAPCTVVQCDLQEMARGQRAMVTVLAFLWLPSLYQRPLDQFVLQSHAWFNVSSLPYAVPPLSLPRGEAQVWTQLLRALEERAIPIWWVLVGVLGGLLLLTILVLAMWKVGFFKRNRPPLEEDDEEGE
T2 sequence (P05106 27-788): as the sequence (P05106 27-788) above

In the case of “[^18F]FProp-Cys^*-Arg-Arg-Glu-Thr-Ala-Trp-Ala-Cys^*-OH ({(18F)fluoropropionyl}-CRRETAWAC-OH; disulfide N-9) [[^18F]FProp-C^*RRETAWAC^*-OH, 18F-labelled radiopeptide tracer for integrin α5β1]”, in data set [1], the “Protein bound activity in human serum” value is recorded as “below 6 % of the total incubated activity”. In data set [2], the “Serum stability (percentage printed in Figure 2)” value amounted to 97.1%. Also, the “Specific binding and internalisation (cell uptake)” value in data set [3] is “specific binding and internalisation”. The “Specific uptake (cell uptake)” value in data set [4] was “no specific uptake”.

Take `CC(F)C(=O)N[C@H]1CSSC[C@@H](C(=O)O)NC(=O)[C@H](C)NC(=O)[C@H](Cc2c[nH]c3ccccc23)NC(=O)[C@H](C)NC(=O)[C@H]([C@@H](C)O)NC(=O)[C@H](CCC(=O)O)NC(=O)[C@H](CCCNC(=N)N)NC(=O)[C@H](CCCNC(=N)N)NC1=O` (some centres unmarked) [FProp-C∗RRETAWAC∗-OH (2)] ({Propanoyl(2-F)}-CRRETAWAC-OH; disulfide 1-9): the inhibitory constant (Ki) (as a rule, a measure of affinity in units of concentration, obtained from inhibition or displacement) in data set [5] (setting [9]) is 77 ± 50 nM; in data set [5] (setting [10]), 127 nM and 26 nM; in data set [6] (read-out: Binding affinity (Ki) αIIbβ3, immobilized integrin, 125I-echistatin as radioligand) it was greater than 50 µM; in data set [7] (read-out: Binding affinity (Ki) αvβ3, immobilized integrin, 125I-echistatin as radioligand), greater than 50 µM.

As to “FProp-C^*RRETAWAC^*-OH: non-radioactive reference compound, N-terminal (RS)-2-fluoropropionyl conjugate of the lead peptide ({(RS)‑2‑fluoropropionyl}-CRRETAWAC-OH; disulfide N-9)”, the “Suppression of the binding of [125I]echistatin to immobilised integrin α5β1” value in data set [5] is recorded as “fully suppress”.

Consider `C[C@@H]1NC(=O)[C@H](Cc2c[nH]c3ccccc23)NC(=O)[C@H](C)NC(=O)[C@H]([C@@H](C)O)NC(=O)[C@H](CCC(=O)O)NC(=O)[C@H](C)NC(=O)[C@H](CCCNC(=N)N)NC(=O)[C@@H](N)CSSC[C@@H](C(=O)O)NC1=O` [H-C∗RAETAWAC∗-OH] (H-CRAETAWAC-OH; disulfide 1-9), for which the Ki is 16 ± 1 nM in data set [5] (setting [11]); 17 nM and 15 nM in data set [5] (setting [12]).

`C[C@@H]1NC(=O)[C@H](Cc2c[nH]c3ccccc23)NC(=O)[C@H](C)NC(=O)[C@H]([C@@H](C)O)NC(=O)[C@H](CCC(=O)O)NC(=O)[C@H](CCCNC(=N)N)NC(=O)[C@H](CCCNC(=N)N)NC(=O)[C@@H](N)CSSC[C@@H](C(=O)O)NC1=O` [H-C∗RRETAWAC∗-OH, H-Cys^*-Arg-Arg-Glu-Thr-Ala-Trp-Ala-Cys^*-OH] (H-CRRETAWAC-OH; disulfide 1-9): the Ki in data set [5] (setting [11]) is 5.3 ± 4.1 nM; in data set [5] (setting [12]), 10 nM and 3.9 nM and 2.1 nM; in data set [7] (immobilized integrin, 125I-echistatin as radioligand, read-out: Binding affinity (Ki) αvβ3), greater than 50 µM. Also, the “Suppression of the binding of [125I]echistatin to immobilised integrin α5β1” value in data set [5] was “fully suppress”. The IC50 (usually the concentration that gives 50% inhibition) in data set [8] is 8 nM.

As to `CC(F)C(=O)N[C@H]1CSSC[C@@H](C(=O)O)NC(=O)[C@H](C)NC(=O)[C@H](Cc2c[nH]c3ccccc23)NC(=O)[C@H](C)NC(=O)[C@H]([C@@H](C)O)NC(=O)[C@H](CCC(=O)O)NC(=O)[C@H](CCCNC(=N)N)NC(=O)[C@H](CCCNC(=N)N)NC1=O` (some centres unmarked) [FProp-C∗RRETAWAC∗-OH (1)] ({Propanoyl(2-F)}-CRRETAWAC-OH; disulfide 1-9), the Ki in data set [5] (setting [9]) was 44 ± 3 nM; in data set [5] (setting [10]) it was 41 nM and 47 nM; in data set [6], greater than 50 µM; in data set [7] it was greater than 50 µM.
